Source: US20150315188A1, “COMPOUNDS AND METHODS FOR TREATMENT OF HYPERTENSION” (MEDIVATION TECHNOLOGIES, INC., priority 2012, published 2015)

What was measured:
Parameters in all cases: purchased Milipore (Millipore)
[1] = biological target: T1, Human adrenergic α1B receptor (Homo sapiens, UniProt P35368); assay: Radioligand binding, adrenergic α1B (Protocol Group B); details: Protocol Group B; for inhibition at 0.1 µM / Percentage inhibition of ligand binding, Adrenergic α1B (0.1 μM): 0.1 μM compound; for inhibition at 0.1 µM: read-out: Percentage inhibition of ligand binding, Adrenergic α1B (0.1 μM); for inhibition at 0.3 µM / Percentage inhibition of ligand binding, Adrenergic α1B (0.3 μM): 0.3 μM compound; for inhibition at 0.3 µM: read-out: Percentage inhibition of ligand binding, Adrenergic α1B (0.3 μM)
T1 sequence (P35368 1-520): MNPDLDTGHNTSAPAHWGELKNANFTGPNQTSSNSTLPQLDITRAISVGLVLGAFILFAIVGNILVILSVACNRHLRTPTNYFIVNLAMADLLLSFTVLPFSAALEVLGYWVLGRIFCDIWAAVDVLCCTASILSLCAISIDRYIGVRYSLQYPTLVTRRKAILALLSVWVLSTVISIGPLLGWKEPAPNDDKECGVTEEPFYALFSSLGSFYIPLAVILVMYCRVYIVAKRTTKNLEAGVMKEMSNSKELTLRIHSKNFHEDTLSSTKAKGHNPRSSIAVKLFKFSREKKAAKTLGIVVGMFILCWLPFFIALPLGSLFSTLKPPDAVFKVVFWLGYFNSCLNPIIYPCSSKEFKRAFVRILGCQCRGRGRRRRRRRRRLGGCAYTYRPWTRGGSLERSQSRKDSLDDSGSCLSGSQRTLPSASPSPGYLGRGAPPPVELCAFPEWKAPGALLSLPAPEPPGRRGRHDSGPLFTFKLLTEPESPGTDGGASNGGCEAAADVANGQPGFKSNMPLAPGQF
Summary of the method: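 Recombinant human α1B membranes incubated with test compound and 0.3 nM [3H]prazosin, 60 min at 25 °C, in 50 mM Tris-HCl pH 7.4, 10 mM MgCl2, 1 mM EDTA; nonspecific binding with 10 μM prazosin. Filter-bound radioactivity counted; values are % inhibition of specific binding or estimated Ki.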

[2] = biological target: T2, Human adrenergic α2A receptor (Homo sapiens, UniProt P08913); assay: Radioligand binding, adrenergic α2A (Protocol Group B); details: Protocol Group B
T2 sequence (P08913 1-465): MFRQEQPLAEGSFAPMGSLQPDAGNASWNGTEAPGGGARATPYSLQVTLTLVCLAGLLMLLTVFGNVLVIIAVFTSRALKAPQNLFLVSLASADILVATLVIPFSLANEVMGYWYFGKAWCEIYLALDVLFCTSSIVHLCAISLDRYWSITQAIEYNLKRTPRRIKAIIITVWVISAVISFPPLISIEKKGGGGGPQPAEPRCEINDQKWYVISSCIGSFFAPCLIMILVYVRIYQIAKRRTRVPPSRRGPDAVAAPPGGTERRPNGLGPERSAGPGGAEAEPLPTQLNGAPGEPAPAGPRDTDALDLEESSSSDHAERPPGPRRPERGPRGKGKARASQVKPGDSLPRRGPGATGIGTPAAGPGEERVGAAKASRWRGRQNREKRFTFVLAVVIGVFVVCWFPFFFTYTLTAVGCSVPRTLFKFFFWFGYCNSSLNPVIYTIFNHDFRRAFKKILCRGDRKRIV
Summary of the method: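 Membranes from recombinant cells expressing the receptor, in 50 mM Tris-HCl pH 7.4 with 5 mM MgCl2, 1 mM CaCl2, 0.2% BSA; compounds incubated with 2 nM [^3H]MK-912 for 60 min at 25° C. Nonspecific binding defined by 10 μM rauwolscine; filtration, counting; percent inhibition of specific binding, or estimated Ki.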

[3] = biological target: T3, Human adrenergic α2B receptor (Homo sapiens, UniProt P18089); assay: Radioligand binding, adrenergic α2B (Protocol Group B); details: Protocol Group B; for inhibition at 0.03 µM / Percentage inhibition of ligand binding, Adrenergic α2B (30 nM): 30 nM compound; for inhibition at 0.03 µM: read-out: Percentage inhibition of ligand binding, Adrenergic α2B (30 nM); for Percentage inhibition of ligand binding, Adrenergic α2B (10 nM): 0.01 µM; for Percentage inhibition of ligand binding, Adrenergic α2B (30 nM): 0.03 µM
T3 sequence (P18089 1-450): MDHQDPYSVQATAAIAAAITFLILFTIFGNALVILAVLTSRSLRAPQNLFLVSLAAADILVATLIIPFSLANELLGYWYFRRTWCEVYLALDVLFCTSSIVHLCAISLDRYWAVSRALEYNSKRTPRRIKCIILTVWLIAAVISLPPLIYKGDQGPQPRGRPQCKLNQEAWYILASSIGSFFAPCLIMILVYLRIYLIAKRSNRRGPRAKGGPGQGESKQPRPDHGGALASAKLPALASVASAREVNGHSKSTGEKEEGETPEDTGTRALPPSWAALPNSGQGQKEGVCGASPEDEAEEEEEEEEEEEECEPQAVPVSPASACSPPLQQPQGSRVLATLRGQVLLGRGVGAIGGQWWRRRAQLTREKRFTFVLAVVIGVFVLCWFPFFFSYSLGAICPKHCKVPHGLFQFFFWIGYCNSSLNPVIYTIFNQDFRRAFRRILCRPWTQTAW
Summary of the method: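 Recombinant human α2B receptor membranes incubated with compounds in 50 mM Tris-HCl pH 7.4, 5 mM MgCl2, 1 mM CaCl2, 0.2% BSA, 1% DMSO vehicle. Non-specific binding defined with 10 μM rauwolscine. Values are percent inhibition of specific binding or estimated Ki.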

CC(O)(Cn1c2c(c3cc(C(F)(F)F)ccc31)CN1CCCC1C2)c1cccnc1 (centres unmarked) [85b]
inhibition at 0.1 µM [1]: -12%
inhibition at 0.3 µM [1]: -3%
inhibition at 0.1 µM ([2]; 0.1 μM compound, read-out: Percentage inhibition of ligand binding, Adrenergic α2A (0.1 μM)): -14%
inhibition at 0.3 µM ([2]; 0.3 μM compound, read-out: Percentage inhibition of ligand binding, Adrenergic α2A (0.3 μM)): -17%
inhibition at 0.01 µM ([3]; 10 nM compound, read-out: Percentage inhibition of ligand binding, Adrenergic α2B (10 nM)): -7%
inhibition at 0.03 µM [3]: -5%

Cc1ccc2c(c1)c1c(n2CC(O)c2ccncc2)CNC2CCCC12 (single isomer, unassigned) [34b]
Percentage inhibition of ligand binding, Adrenergic α1B (0.1 μM) [1]: −16%
Percentage inhibition of ligand binding, Adrenergic α1B (0.3 μM) [1]: 12%
Percentage inhibition of ligand binding, Adrenergic α2A (0.1 μM) ([2]; 0.1 μM compound): −7%
Percentage inhibition of ligand binding, Adrenergic α2A (0.3 μM) ([2]; 0.3 μM compound): −2%
Percentage inhibition of ligand binding, Adrenergic α2B (10 nM) ([3]; 10 nM compound): 15%
Percentage inhibition of ligand binding, Adrenergic α2B (30 nM) [3]: 6%
Percentage inhibition of ligand binding, Adrenergic α2B (0.1 μM) ([3]; 0.1 μM compound): 32%

Cc1ccc2c(c1)c1c(n2CC(OCC2CCC2)c2ccncc2)CCN2CCCC12 (single isomer, unassigned) [138d]
Percentage inhibition of ligand binding, Adrenergic α1B (0.1 μM) [1]: 0%
Percentage inhibition of ligand binding, Adrenergic α2A (0.1 μM) ([2]; 0.1 μM compound): 4%
Percentage inhibition of ligand binding, Adrenergic α2B (30 nM) [3]: 11%

Cc1ccc2c(c1)c1c(n2CC(C)(O)c2cccnc2)CCN(C)C1CO (single isomer, unassigned) [16b]
Percentage inhibition of ligand binding, Adrenergic α1B (0.1 μM) [1]: −3%
Percentage inhibition of ligand binding, Adrenergic α1B (0.3 μM) [1]: 5%
Percentage inhibition of ligand binding, Adrenergic α2A (0.1 μM) ([2]; 0.1 μM compound): −2%
Percentage inhibition of ligand binding, Adrenergic α2A (0.3 μM) ([2]; 0.3 μM compound): 10%
Percentage inhibition of ligand binding, Adrenergic α2B (10 nM) ([3]; 10 nM compound): 4%
Percentage inhibition of ligand binding, Adrenergic α2B (30 nM) [3]: −11%
Percentage inhibition of ligand binding, Adrenergic α2B (0.1 μM) ([3]; 0.1 μM compound): 7%

Cc1cc(Br)c2c(c1)c1c(n2CC(O)c2ccncc2)CCN2CCCC12 (single isomer, unassigned) [145a]
Percentage inhibition of ligand binding, Adrenergic α1B (0.1 μM) [1]: 46%
Percentage inhibition of ligand binding, Adrenergic α2A (0.1 μM) ([2]; 0.1 μM compound): 39%
inhibition at 0.03 µM [3]: 84%

OC(Cn1c2c(c3cc(F)ccc31)C1CCCN1CC2)c1ccncc1 (single isomer, unassigned) [18a]
Percentage inhibition of ligand binding, Adrenergic α1B (0.1 μM) [1]: 20%
Percentage inhibition of ligand binding, Adrenergic α1B (0.3 μM) [1]: 55%
Percentage inhibition of ligand binding, Adrenergic α2A (0.1 μM) ([2]; 0.1 μM compound): −7%
Percentage inhibition of ligand binding, Adrenergic α2A (0.3 μM) ([2]; 0.3 μM compound): 38%
Percentage inhibition of ligand binding, Adrenergic α2B (10 nM) ([3]; 10 nM compound): 41%
Percentage inhibition of ligand binding, Adrenergic α2B (30 nM) [3]: 58%
Percentage inhibition of ligand binding, Adrenergic α2B (0.1 μM) ([3]; 0.1 μM compound): 80%

Cc1cc(F)c2c(c1)c1c(n2CC(C)(O)c2cccnc2)CC2CCCN2C1 (single isomer, unassigned) [61a]
Percentage inhibition of ligand binding, Adrenergic α1B (0.1 μM) [1]: 1%
Percentage inhibition of ligand binding, Adrenergic α1B (0.3 μM) [1]: 18%
Percentage inhibition of ligand binding, Adrenergic α2A (0.1 μM) ([2]; 0.1 μM compound): 9%
Percentage inhibition of ligand binding, Adrenergic α2A (0.3 μM) ([2]; 0.3 μM compound): 34%
Percentage inhibition of ligand binding, Adrenergic α2B (10 nM) ([3]; 10 nM compound): 38%
Percentage inhibition of ligand binding, Adrenergic α2B (30 nM) [3]: 68%
Percentage inhibition of ligand binding, Adrenergic α2B (0.1 μM) ([3]; 0.1 μM compound): 88%

Cc1ccc2c(c1)c1c(n2CC(O)c2ccccn2)CC2CCCN2C1 (single isomer, unassigned) [45a]
Percentage inhibition of ligand binding, Adrenergic α1B (0.1 μM) [1]: 12%
Percentage inhibition of ligand binding, Adrenergic α1B (0.3 μM) [1]: 35%
Percentage inhibition of ligand binding, Adrenergic α2A (0.1 μM) ([2]; 0.1 μM compound): −1%
Percentage inhibition of ligand binding, Adrenergic α2A (0.3 μM) ([2]; 0.3 μM compound): 12%
Percentage inhibition of ligand binding, Adrenergic α2B (10 nM) ([3]; 10 nM compound): −4%
Percentage inhibition of ligand binding, Adrenergic α2B (30 nM) [3]: 16%
Percentage inhibition of ligand binding, Adrenergic α2B (0.1 μM) ([3]; 0.1 μM compound): 43%

Cc1cc(F)c2c(c1)c1c(n2CC(C)(O)c2cccnc2)CC2CCCN2C1 (single isomer, unassigned) [61b]
Percentage inhibition of ligand binding, Adrenergic α1B (0.1 μM) [1]: −7%
Percentage inhibition of ligand binding, Adrenergic α1B (0.3 μM) [1]: 11%
Percentage inhibition of ligand binding, Adrenergic α2A (0.1 μM) ([2]; 0.1 μM compound): 6%
Percentage inhibition of ligand binding, Adrenergic α2A (0.3 μM) ([2]; 0.3 μM compound): 22%
Percentage inhibition of ligand binding, Adrenergic α2B (10 nM) ([3]; 10 nM compound): −8%
Percentage inhibition of ligand binding, Adrenergic α2B (30 nM) [3]: 3%
Percentage inhibition of ligand binding, Adrenergic α2B (0.1 μM) ([3]; 0.1 μM compound): 28%

Cc1ccc2c(c1)c1c(n2CC(C)(O)c2ccc(F)cc2)CN2CCC1C2 (single isomer, unassigned) [134a]
Percentage inhibition of ligand binding, Adrenergic α1B (0.1 μM) [1]: −6%
Percentage inhibition of ligand binding, Adrenergic α2A (0.1 μM) ([2]; 0.1 μM compound): −5%
Percentage inhibition of ligand binding, Adrenergic α2B (30 nM) [3]: −8%

Cc1ccc2c(c1)c1c(n2CC(C)(O)c2ccc(F)cc2)CC2CCC1N2C (single isomer, unassigned) [102a]
Percentage inhibition of ligand binding, Adrenergic α1B (0.1 μM) [1]: 5%
Percentage inhibition of ligand binding, Adrenergic α1B (0.3 μM) [1]: 22%
Percentage inhibition of ligand binding, Adrenergic α2A (0.1 μM) ([2]; 0.1 μM compound): −8%
Percentage inhibition of ligand binding, Adrenergic α2A (0.3 μM) ([2]; 0.3 μM compound): 5%
Percentage inhibition of ligand binding, Adrenergic α2B (10 nM) ([3]; 10 nM compound): 2%
Percentage inhibition of ligand binding, Adrenergic α2B (30 nM) [3]: 13%
Percentage inhibition of ligand binding, Adrenergic α2B (0.1 μM) ([3]; 0.1 μM compound): 38%

Cc1cc(F)cc2c3c(n(CC(C)(O)c4cccnc4)c12)CC1CCCN1C3 (single isomer, unassigned) [76c]
Percentage inhibition of ligand binding, Adrenergic α1B (0.1 μM) [1]: 19%
Percentage inhibition of ligand binding, Adrenergic α1B (0.3 μM) [1]: 33%
Percentage inhibition of ligand binding, Adrenergic α2A (0.1 μM) ([2]; 0.1 μM compound): 19%
Percentage inhibition of ligand binding, Adrenergic α2A (0.3 μM) ([2]; 0.3 μM compound): 18%
Percentage inhibition of ligand binding, Adrenergic α2B (10 nM) ([3]; 10 nM compound): −3%
Percentage inhibition of ligand binding, Adrenergic α2B (30 nM) [3]: −3%

Cc1ccc2c(c1)c1c(n2CC(C)(O)c2cnc3ccccc3c2)CCN(C)C1 (centres unmarked) [compound 32]
inhibition at 0.1 µM [1]: -1%
inhibition at 0.3 µM [1]: 18%
Percentage inhibition of ligand binding, Adrenergic α2A (0.1 μM) ([2]; 0.1 μM compound): 5%
Percentage inhibition of ligand binding, Adrenergic α2A (0.3 μM) ([2]; 0.3 μM compound): 31%
Percentage inhibition of ligand binding, Adrenergic α2B (10 nM) ([3]; 10 nM compound): 14%
Percentage inhibition of ligand binding, Adrenergic α2B (30 nM) [3]: 34%
inhibition at 0.1 µM ([3]; 0.1 μM compound, read-out: Percentage inhibition of ligand binding, Adrenergic α2B (0.1 μM)): 69%
